Data taken from PubChem BioAssay (NCI).
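Briefly, cells in 96-well plates were exposed to five compound concentrations for 48 h, and endpoints were estimated by linear interpolation. The concentration for full growth arrest is given as TGI.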

Legend:
Assay in all cases: inhibition of tumour cell growth, NCI panel, 48 h
[1] = system: 786-0 renal
[2] = system: A498 renal
[3] = system: A549 NSCLC
[4] = system: ACHN renal
[5] = system: BT-549 breast
[6] = system: CAKI-1 renal
[7] = system: COLO 205 colon
[8] = system: DU-145 prostate
[9] = system: EKVX NSCLC
[10] = system: HCT-116 colon
[11] = system: HCT-15 colon
[12] = system: HOP-62 NSCLC
[13] = system: HOP-92 NSCLC
[14] = system: HS 578T breast
[15] = system: HT29 colon
[16] = system: IGROV1 ovarian
[17] = system: K-562 leukemia
[18] = system: KM12 colon
[19] = system: LOX IMVI melanoma
[20] = system: M14 melanoma
[21] = system: MALME-3M melanoma
[22] = system: MCF7 breast
[23] = system: MDA-MB-231 breast
[24] = system: MDA-MB-435
[25] = system: MDA-N
[26] = system: MOLT-4 leukemia
[27] = system: NCI-H226 lung
[28] = system: NCI-H23 lung
[29] = system: NCI-H460 lung
[30] = system: NCI-H522 lung
[31] = system: NCI/ADR-RES ovarian
[32] = system: OVCAR-3 ovarian
[33] = system: OVCAR-4 ovarian
[34] = system: OVCAR-5 ovarian
[35] = system: OVCAR-8 ovarian
[36] = system: PC-3 prostate
[37] = system: RPMI-8226 leukemia
[38] = system: RXF 393 renal
[39] = system: SF-268 CNS
[40] = system: SF-295 CNS
[41] = system: SF-539 CNS
[42] = system: SK-MEL-2 melanoma
[43] = system: SK-MEL-28 melanoma
[44] = system: SK-MEL-5 melanoma
[45] = system: SK-OV-3 ovarian
[46] = system: SN12C renal
[47] = system: SNB-19 CNS
[48] = system: SNB-75 CNS
[49] = system: SR leukemia
[50] = system: SW-620 colon
[51] = system: T-47D breast
[52] = system: TK-10 renal
[53] = system: U251 CNS
[54] = system: UACC-257 melanoma
[55] = system: UACC-62 melanoma
[56] = system: UO-31 renal
[57] = system: CCRF-CEM leukemia
[58] = system: HCC-2998 colon
[59] = system: HL-60(TB) leukemia

## C[C@]12CCC3=NCCN3C1=CC[C@@H]1[C@@H]2CC[C@@]2(C)[C@H]1CC[C@]2(C)O
[1]
  TGI: 32.4 µM
[2]
  TGI: 77.6 µM
[3]
  TGI: > 100 µM
[4]
  TGI: > 100 µM
[5]
  TGI: > 100 µM
[6]
  TGI: > 100 µM
[7]
  TGI: 75.5 µM
[8]
  TGI: > 100 µM
[9]
  TGI: > 100 µM
[10]
  TGI: > 100 µM
[11]
  TGI: > 100 µM
[12]
  TGI: > 100 µM
[13]
  TGI: > 100 µM
[14]
  TGI: 74.7 µM
[15]
  TGI: > 100 µM
[16]
  TGI: > 100 µM
[17]
  TGI: > 100 µM
[18]
  TGI: > 100 µM
[19]
  TGI: > 100 µM
[20]
  TGI: > 100 µM
[21]
  TGI: 53.5 µM
[22]
  TGI: > 100 µM
[23]
  TGI: > 100 µM
[24]
  TGI: > 100 µM
[25]
  TGI: > 100 µM
[26]
  TGI: > 100 µM
[27]
  TGI: 96.3 µM
[28]
  TGI: > 100 µM
[29]
  TGI: > 100 µM
[30]
  TGI: > 100 µM
[31]
  TGI: > 100 µM
[32]
  TGI: > 100 µM
[33]
  TGI: > 100 µM
[34]
  TGI: > 100 µM
[35]
  TGI: > 100 µM
[36]
  TGI: > 100 µM
[37]
  TGI: 70.8 µM
[38]
  TGI: 66.4 µM
[39]
  TGI: > 100 µM
[40]
  TGI: 42.6 µM
[41]
  TGI: 80 µM
[42]
  TGI: > 100 µM
[43]
  TGI: 99.6 µM
[44]
  TGI: 35.6 µM
[45]
  TGI: > 100 µM
[46]
  TGI: > 100 µM
[47]
  TGI: > 100 µM
[48]
  TGI: > 100 µM
[49]
  TGI: > 100 µM
[50]
  TGI: > 100 µM
[51]
  TGI: > 100 µM
[52]
  TGI: > 100 µM
[53]
  TGI: > 100 µM
[54]
  TGI: 73.1 µM
[55]
  TGI: 76.4 µM
[56]
  TGI: > 100 µM

## Clc1cc2ncn(C3CCCCO3)c2cc1Cl (centres undefined)
[1]
  TGI: > 100 µM
[3]
  TGI: > 100 µM
[5]
  TGI: 84.5 µM
[6]
  TGI: > 100 µM
[57]
  TGI: > 100 µM
[7]
  TGI: > 100 µM
[8]
  TGI: > 100 µM
[9]
  TGI: 92.4 µM
[58]
  TGI: > 100 µM
[10]
  TGI: > 100 µM
[11]
  TGI: > 100 µM
[59]
  TGI: > 100 µM
[12]
  TGI: > 100 µM
[14]
  TGI: 85.4 µM
[15]
  TGI: > 100 µM
[16]
  TGI: > 100 µM
[17]
  TGI: > 100 µM
[18]
  TGI: > 100 µM
[19]
  TGI: > 100 µM
[20]
  TGI: > 100 µM
[21]
  TGI: > 100 µM
[22]
  TGI: > 100 µM
[23]
  TGI: > 100 µM
[24]
  TGI: > 100 µM
[25]
  TGI: > 100 µM
[26]
  TGI: > 100 µM
[27]
  TGI: 80.9 µM
[28]
  TGI: > 100 µM
[30]
  TGI: 59.2 µM
[31]
  TGI: > 100 µM
[32]
  TGI: > 100 µM
[33]
  TGI: > 100 µM
[34]
  TGI: > 100 µM
[35]
  TGI: > 100 µM
[36]
  TGI: > 100 µM
[37]
  TGI: > 100 µM
[38]
  TGI: > 100 µM
[39]
  TGI: > 100 µM
[40]
  TGI: > 100 µM
[41]
  TGI: > 100 µM
[42]
  TGI: > 100 µM
[43]
  TGI: > 100 µM
[44]
  TGI: > 100 µM
[45]
  TGI: > 100 µM
[46]
  TGI: > 100 µM
[47]
  TGI: > 100 µM
[48]
  TGI: 53.9 µM
[49]
  TGI: > 100 µM
[50]
  TGI: > 100 µM
[51]
  TGI: > 100 µM
[53]
  TGI: > 100 µM
[55]
  TGI: > 100 µM
[56]
  TGI: 49.8 µM
